Measurements: ChEMBL document CHEMBL1201862, “PubChem BioAssay data set” (2004)
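Assay format: 96-well plates, 48-hour exposure. GI50 = concentration required for 50% inhibition of growth.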 Active and inactive are the calls of the source. Cut-off read from the data, not from the text of the source: active = GI50 up to about 1.1 µM and inactive = higher.

Key:
Test in all cases: inhibition of tumour cell growth, NCI panel, 48 h
[1] = test system: IGROV-1
[2] = test system: ACHN
[3] = test system: HCC 2998
[4] = test system: NCI-H522
[5] = test system: A498
[6] = test system: COLO 205
[7] = test system: SF-539
[8] = test system: OVCAR-8
[9] = test system: SF-295
[10] = test system: OVCAR-4
[11] = test system: KM12
[12] = test system: 786-0
[13] = test system: NCI-H460
[14] = test system: MDA-MB-435
[15] = test system: NCI-H23
[16] = test system: BT-549
[17] = test system: CAKI-1
[18] = test system: SF-268
[19] = test system: UACC-62
[20] = test system: SK-MEL-2
[21] = test system: HOP-92
[22] = test system: SNB-75
[23] = test system: NCI-H226
[24] = test system: LOX IMVI
[25] = test system: Malme-3M
[26] = test system: SK-MEL-28
[27] = test system: HCT-15
[28] = test system: EKVX
[29] = test system: HT-29
[30] = test system: SR
[31] = test system: RXF 393
[32] = test system: MCF7
[33] = test system: SK-OV-3
[34] = test system: MDA-MB-231
[35] = test system: MDA-N
[36] = test system: SK-MEL-5
[37] = test system: K562
[38] = test system: UO-31
[39] = test system: UACC-257
[40] = test system: U-251
[41] = test system: A549
[42] = test system: HL-60
[43] = test system: OVCAR-3
[44] = test system: HCT-116
[45] = test system: DU-145
[46] = test system: TK-10
[47] = test system: M14
[48] = test system: SW-620
[49] = test system: HOP-62
[50] = test system: SNB-19
[51] = test system: RPMI-8226
[52] = test system: PC-3
[53] = test system: NCI/ADR-RES
[54] = test system: OVCAR-5
[55] = test system: Hs-578T
[56] = test system: SN12C
[57] = test system: CCRF-CEM
[58] = test system: MOLT-4
[59] = test system: T47D

Measured: GI50

O=C(Nc1ccc([As](=O)(O)O)cc1)Nc1cccc(Cl)c1Cl
> 100 µM: [27]
inactive: [1] > 100 µM | [2] > 100 µM | [3] > 100 µM | [4] > 100 µM | [5] > 100 µM | [6] > 100 µM | [7] > 100 µM | [8] 46.2 µM | [9] 65.5 µM | [10] 18.7 µM | [11] > 100 µM | [12] 46.1 µM | [13] > 100 µM | [14] > 100 µM | [15] > 100 µM | [16] > 100 µM | [17] > 100 µM | [18] 45.7 µM | [19] > 100 µM | [20] > 100 µM | [21] 77.8 µM | [22] 21.7 µM | [23] > 100 µM | [24] > 100 µM | [25] > 100 µM | [26] > 100 µM | [28] 79.8 µM | [29] > 100 µM | [30] 17 µM | [31] 22.2 µM | [32] > 100 µM | [33] > 100 µM | [34] 23.3 µM | [35] > 100 µM | [36] > 100 µM | [37] 97.5 µM | [38] 40.6 µM | [39] > 100 µM | [40] 36.5 µM | [41] > 100 µM | [42] > 100 µM | [43] > 100 µM | [44] > 100 µM | [45] > 100 µM | [46] 89.1 µM | [47] > 100 µM | [48] > 100 µM | [49] 70 µM | [50] 86.1 µM | [51] > 100 µM | [52] 83.9 µM | [53] > 100 µM | [54] > 100 µM | [55] 20.5 µM | [56] > 100 µM

CCOP(=O)(OCC)/C(C#N)=C/c1coc2cc(C)cc(C)c2c1=O
inactive: [1] > 100 µM | [2] > 100 µM | [3] > 100 µM | [4] > 100 µM | [5] > 100 µM | [6] > 100 µM | [8] > 100 µM | [9] > 100 µM | [10] > 100 µM | [11] > 100 µM | [12] > 100 µM | [13] > 100 µM | [14] > 100 µM | [15] > 100 µM | [57] > 100 µM | [16] > 100 µM | [17] > 100 µM | [18] > 100 µM | [19] 67 µM | [20] > 100 µM | [21] > 100 µM | [22] > 100 µM | [58] > 100 µM | [23] > 100 µM | [24] > 100 µM | [25] > 100 µM | [26] > 100 µM | [28] > 100 µM | [29] > 100 µM | [30] > 100 µM | [32] > 100 µM | [33] > 100 µM | [34] > 100 µM | [35] > 100 µM | [36] > 100 µM | [37] > 100 µM | [38] > 100 µM | [39] > 100 µM | [40] > 100 µM | [41] > 100 µM | [42] > 100 µM | [43] > 100 µM | [44] > 100 µM | [45] > 100 µM | [47] > 100 µM | [48] > 100 µM | [49] > 100 µM | [50] > 100 µM | [51] > 100 µM | [52] > 100 µM | [53] > 100 µM | [54] > 100 µM | [55] > 100 µM | [56] > 100 µM

COC(=O)[C@@H]1C[C@@H]2c3ccccc3N(S(=O)(=O)c3ccccc3)[C@@H]2N1C(=O)OC
inactive: [1] > 100 µM | [2] > 100 µM | [3] > 100 µM | [4] > 100 µM | [6] > 100 µM | [7] > 100 µM | [8] > 100 µM | [9] > 100 µM | [10] > 100 µM | [11] > 100 µM | [12] > 100 µM | [13] > 100 µM | [14] > 100 µM | [15] 37.1 µM | [57] > 100 µM | [16] > 100 µM | [17] > 100 µM | [18] > 100 µM | [19] > 100 µM | [20] > 100 µM | [21] > 100 µM | [22] > 100 µM | [58] > 100 µM | [23] > 100 µM | [24] > 100 µM | [25] > 100 µM | [26] > 100 µM | [28] > 100 µM | [29] > 100 µM | [30] > 100 µM | [31] > 100 µM | [32] > 100 µM | [33] > 100 µM | [34] > 100 µM | [35] > 100 µM | [36] > 100 µM | [37] > 100 µM | [38] > 100 µM | [39] > 100 µM | [40] > 100 µM | [41] > 100 µM | [42] > 100 µM | [43] > 100 µM | [44] > 100 µM | [45] 35.2 µM | [46] > 100 µM | [48] > 100 µM | [49] > 100 µM | [50] > 100 µM | [51] > 100 µM | [52] > 100 µM | [53] > 100 µM | [54] 44 µM | [55] > 100 µM | [56] > 100 µM
> 100 µM: [27]

NS(=O)(=O)c1nnc(NS(=O)(=O)c2ccccc2[N+](=O)[O-])s1
> 100 µM: [27]
inactive: [1] > 100 µM | [59] > 100 µM | [2] > 100 µM | [3] > 100 µM | [4] > 100 µM | [5] > 100 µM | [6] > 100 µM | [7] > 100 µM | [9] > 100 µM | [10] > 100 µM | [11] > 100 µM | [12] > 100 µM | [13] > 100 µM | [14] > 100 µM | [15] > 100 µM | [16] > 100 µM | [17] > 100 µM | [18] > 100 µM | [19] > 100 µM | [20] > 100 µM | [21] > 100 µM | [22] > 100 µM | [58] > 100 µM | [23] > 100 µM | [25] > 100 µM | [26] > 100 µM | [28] > 100 µM | [29] > 100 µM | [30] > 100 µM | [31] > 100 µM | [32] > 100 µM | [33] > 100 µM | [34] > 100 µM | [36] > 100 µM | [37] > 100 µM | [38] > 100 µM | [40] > 100 µM | [41] > 100 µM | [42] > 100 µM | [43] > 100 µM | [44] > 100 µM | [45] > 100 µM | [46] > 100 µM | [47] > 100 µM | [48] > 100 µM | [49] > 100 µM | [50] > 100 µM | [51] > 100 µM | [52] > 100 µM | [53] > 100 µM | [54] > 100 µM | [55] > 100 µM

O=c1oc2ccccc2cc1-c1nnc(-c2ccccc2)s1
6.73 µM: [27]
active: [30] 0.971 µM | [42] 0.0279 µM
inactive: [1] 22.4 µM | [2] 32 µM | [3] 12 µM | [4] 13.7 µM | [5] 15.1 µM | [6] > 53 µM | [7] 14.5 µM | [8] 22.1 µM | [9] 28.2 µM | [10] > 68.2 µM | [11] 4.61 µM | [12] 17.3 µM | [13] 28.1 µM | [14] 1.65 µM | [15] > 51.2 µM | [57] 40.3 µM | [16] > 68.7 µM | [17] > 64.9 µM | [18] > 57.9 µM | [19] > 100 µM | [20] > 48.8 µM | [21] > 100 µM | [22] 15.5 µM | [58] 19.1 µM | [23] > 56 µM | [24] > 72.8 µM | [25] > 100 µM | [26] 98.6 µM | [28] > 58.9 µM | [29] 10.1 µM | [31] 17.1 µM | [32] 7.67 µM | [33] 48.6 µM | [34] 19.1 µM | [35] 2.54 µM | [36] > 71.3 µM | [37] 9.89 µM | [38] 55.6 µM | [39] > 100 µM | [40] 12.6 µM | [41] 38.5 µM | [43] 14.5 µM | [44] 20.3 µM | [45] > 100 µM | [46] > 36.6 µM | [47] > 56.1 µM | [48] 12.1 µM | [49] 16.1 µM | [50] 41.6 µM | [51] > 55.7 µM | [52] > 76.6 µM | [53] 12.1 µM | [54] > 100 µM | [55] > 64.4 µM | [56] 60.5 µM
